This note sets out measurements from patent publication US7091346B1, “Purine derivatives and processes for their preparation” (Novartis AG, priority 1995, dated 2006).

Regarding `CCn1cnc2c(Nc3cccc(Cl)c3)nc(N[C@H]3CC[C@H](O)CC3)nc21` [Example 65, 6-(3-chloro-phenyl-amino)-9-ethyl-2-(trans-4-hydroxy-cyclohexyl-amino)-9H-purine], the melting point is 116.5 °C. As for `CCn1cnc2c(Nc3cccc(Cl)c3)nc(N3CCCC(N)C3)nc21` (stereo not drawn) [Example 66, 2-(3-amino-piperidin-1-yl)-6-(3-chloro-phenyl-amino)-9-ethyl-9H-purine], the melting point came to 165 °C. `CCn1cnc2c(Nc3cccc(Cl)c3)nc(N3CCC(O)CC3)nc21` [Example 72, 6-(3-chloro-phenyl-amino)-9-ethyl-2-(4-hydroxy-piperidino)-9H-purine] gave a melting point of 198.7 °C. Compound `CCn1cnc2c(Nc3cccc(Cl)c3)nc(N3C(C)CNCC3C)nc21` (stereo not drawn) [Example 74, 6-(3-chloro-phenylamino)-2-[(2,6-dimethyl)-piperazino]-9-ethyl-9H-purine] registered a melting point of 183 °C. `CCn1cnc2c(Nc3cccc(Cl)c3)nc(N3CCCCC3)nc21` [Example 82, 6-(3-chloro-phenyl-amino)-9-ethyl-2-piperidino-9H-purine]: the melting point amounted to 126 °C. In turn, `CC[C@@H](CO)Nc1nc(Nc2cccc(Cl)c2)c2ncn(CC)c2n1` [Example 83, 6-(3-chloro-phenyl-amino)-9-ethyl-2-[(S)-1-hydroxy-but-2-yl-amino]-9H-purine] returned a melting point of 203 °C. Regarding `CC[C@H](CO)Nc1nc(Nc2cccc(Cl)c2)c2ncn(CC)c2n1` [Example 84, 6-(3-chloro-phenyl-amino)-9-ethyl-2-[(R)-1-hydroxy-but-2-yl-amino)-9H-purine], the melting point is 200 °C. Compound `CCn1cnc2c(Nc3cccc(Cl)c3)nc(NC3CCCCC3)nc21` [Example 85, 6-(3-chloro-phenyl-amino)-2-cyclohexylamino-9-ethyl-9H-purine] showed a melting point of 143 °C. Next, `CCn1cnc2c(Nc3cccc(Cl)c3)nc(NC[C@@H](C)O)nc21` [Example 88, 6-(3-chloro-phenyl-amino)-9-ethyl-2-[(R)-2-hydroxy-propylamino]-9H-purine]: 161 °C.

`CCn1cnc2c(Nc3cccc(Cl)c3)nc(NC[C@H](C)O)nc21` [Example 89, 6-(3-chloro-phenyl-amino)-9-ethyl-2-[(S)-2-hydroxy-propylamino]-9H-purine]: the melting point is 161 °C. In the case of `CC(C)n1cnc2c(Nc3cccc(F)c3)nc(NCCN)nc21` [Example 91, 2-(2-Amino-ethyl-amino)-6-(3-fluoro-phenyl-amino)-9-isopropyl-9H-purine], the melting point is over 250 °C. Next, `CCn1cnc2c(Nc3cccc(F)c3)nc(NCCO)nc21` [Example 92, 2-(2-hydroxy-ethyl-amino)-6-(3-fluoro-phenyl-amino)-9-ethyl-9H-purine]: 184 °C; `CCn1cnc2c(Nc3cccc(C(F)(F)F)c3)nc(NCCN)nc21` [Example 95, 2-(2-amino-ethyl-amino)-9-ethyl-6-(3-trifluoromethyl-phenyl-amino)-9H-purine]: over 250 °C; `CC(C)n1cnc2c(Nc3ccc(F)cc3)nc(NCCO)nc21` [Example 96, 6-(4-fluoro-phenyl-amino)-2-(2-hydroxy-ethyl-amino)-9-isopropyl-9H-purine]: 139 °C.

The compound `CCn1cnc2c(Nc3ccc(F)cc3)nc(NCCO)nc21` [Example 99, 9-ethyl-6-(4-fluoro-phenyl-amino)-2-(2-hydroxy-ethyl-amino)-9H-purine] registered a melting point of 152 °C. The result for `COc1cccc(Nc2nc(NCCN)nc3c2ncn3C(C)C)c1` [Example 101, 2-(2-amino-ethyl-amino)-9-isopropyl-6-(3-methoxy-phenyl-amino)-9H-purine] reads 181 °C; that for `CCn1cnc2c(Nc3ccc(C(F)(F)F)cc3)nc(NCCO)nc21` [Example 104, 9-Ethyl-2-(2-hydroxy-ethyl-amino)-6-(4-trifluoromethyl-phenyl-amino)-9H-purine], 191 to 192 °C; that for `CCn1cnc2c(Nc3cc(C(F)(F)F)cc(C(F)(F)F)c3)nc(NCCO)nc21` [Example 105, 9-ethyl-2-(2-hydroxy-ethyl-amino)-6-(3,5-di-trifluoromethyl-phenyl-amino)-9H-purine], 202 °C. Regarding `CCn1cnc2c(Nc3ccc(Cl)c(C(F)(F)F)c3)nc(NCCO)nc21` [Example 106, 6-(4-chloro-3-trifluoromethyl-phenyl-amino)-9-ethyl-2-(2-hydroxy-ethyl-amino)-9H-purine], the melting point is 194 °C. The result for `CCn1cnc2c(Nc3ccc(NC(=O)OCc4ccccc4)cc3)nc(NCCO)nc21` [Example 107, 6-(4-benzyloxycarbonylamino-phenyl-amino)-9-ethyl-2-(2-hydroxy-ethyl-amino)-9H-purine] reads 148 °C.

Take `CCn1cnc2c(Nc3ccc(N)cc3)nc(NCCO)nc21` [Example 108, 6-(4-amino-phenyl-amino)-9-ethyl-2-(2-hydroxy-ethyl-amino)-9H-purine]: the melting point is 210 °C.

By melting point is commonly meant the temperature of the solid-liquid transition.
